Experimental data reported in ChEMBL document CHEMBL1156725, “8-Biarylchromen-4-one inhibitors of the DNA-dependent protein kinase (DNA-PK)” (Bioorg Med Chem Lett, 2008).

Biological target: DNA-dependent protein kinase catalytic subunit (Homo sapiens, UniProt P78527)
Assay: Inhibition of DNA-dependent protein kinase

Chain of DNA-dependent protein kinase catalytic subunit (P78527 whole entry): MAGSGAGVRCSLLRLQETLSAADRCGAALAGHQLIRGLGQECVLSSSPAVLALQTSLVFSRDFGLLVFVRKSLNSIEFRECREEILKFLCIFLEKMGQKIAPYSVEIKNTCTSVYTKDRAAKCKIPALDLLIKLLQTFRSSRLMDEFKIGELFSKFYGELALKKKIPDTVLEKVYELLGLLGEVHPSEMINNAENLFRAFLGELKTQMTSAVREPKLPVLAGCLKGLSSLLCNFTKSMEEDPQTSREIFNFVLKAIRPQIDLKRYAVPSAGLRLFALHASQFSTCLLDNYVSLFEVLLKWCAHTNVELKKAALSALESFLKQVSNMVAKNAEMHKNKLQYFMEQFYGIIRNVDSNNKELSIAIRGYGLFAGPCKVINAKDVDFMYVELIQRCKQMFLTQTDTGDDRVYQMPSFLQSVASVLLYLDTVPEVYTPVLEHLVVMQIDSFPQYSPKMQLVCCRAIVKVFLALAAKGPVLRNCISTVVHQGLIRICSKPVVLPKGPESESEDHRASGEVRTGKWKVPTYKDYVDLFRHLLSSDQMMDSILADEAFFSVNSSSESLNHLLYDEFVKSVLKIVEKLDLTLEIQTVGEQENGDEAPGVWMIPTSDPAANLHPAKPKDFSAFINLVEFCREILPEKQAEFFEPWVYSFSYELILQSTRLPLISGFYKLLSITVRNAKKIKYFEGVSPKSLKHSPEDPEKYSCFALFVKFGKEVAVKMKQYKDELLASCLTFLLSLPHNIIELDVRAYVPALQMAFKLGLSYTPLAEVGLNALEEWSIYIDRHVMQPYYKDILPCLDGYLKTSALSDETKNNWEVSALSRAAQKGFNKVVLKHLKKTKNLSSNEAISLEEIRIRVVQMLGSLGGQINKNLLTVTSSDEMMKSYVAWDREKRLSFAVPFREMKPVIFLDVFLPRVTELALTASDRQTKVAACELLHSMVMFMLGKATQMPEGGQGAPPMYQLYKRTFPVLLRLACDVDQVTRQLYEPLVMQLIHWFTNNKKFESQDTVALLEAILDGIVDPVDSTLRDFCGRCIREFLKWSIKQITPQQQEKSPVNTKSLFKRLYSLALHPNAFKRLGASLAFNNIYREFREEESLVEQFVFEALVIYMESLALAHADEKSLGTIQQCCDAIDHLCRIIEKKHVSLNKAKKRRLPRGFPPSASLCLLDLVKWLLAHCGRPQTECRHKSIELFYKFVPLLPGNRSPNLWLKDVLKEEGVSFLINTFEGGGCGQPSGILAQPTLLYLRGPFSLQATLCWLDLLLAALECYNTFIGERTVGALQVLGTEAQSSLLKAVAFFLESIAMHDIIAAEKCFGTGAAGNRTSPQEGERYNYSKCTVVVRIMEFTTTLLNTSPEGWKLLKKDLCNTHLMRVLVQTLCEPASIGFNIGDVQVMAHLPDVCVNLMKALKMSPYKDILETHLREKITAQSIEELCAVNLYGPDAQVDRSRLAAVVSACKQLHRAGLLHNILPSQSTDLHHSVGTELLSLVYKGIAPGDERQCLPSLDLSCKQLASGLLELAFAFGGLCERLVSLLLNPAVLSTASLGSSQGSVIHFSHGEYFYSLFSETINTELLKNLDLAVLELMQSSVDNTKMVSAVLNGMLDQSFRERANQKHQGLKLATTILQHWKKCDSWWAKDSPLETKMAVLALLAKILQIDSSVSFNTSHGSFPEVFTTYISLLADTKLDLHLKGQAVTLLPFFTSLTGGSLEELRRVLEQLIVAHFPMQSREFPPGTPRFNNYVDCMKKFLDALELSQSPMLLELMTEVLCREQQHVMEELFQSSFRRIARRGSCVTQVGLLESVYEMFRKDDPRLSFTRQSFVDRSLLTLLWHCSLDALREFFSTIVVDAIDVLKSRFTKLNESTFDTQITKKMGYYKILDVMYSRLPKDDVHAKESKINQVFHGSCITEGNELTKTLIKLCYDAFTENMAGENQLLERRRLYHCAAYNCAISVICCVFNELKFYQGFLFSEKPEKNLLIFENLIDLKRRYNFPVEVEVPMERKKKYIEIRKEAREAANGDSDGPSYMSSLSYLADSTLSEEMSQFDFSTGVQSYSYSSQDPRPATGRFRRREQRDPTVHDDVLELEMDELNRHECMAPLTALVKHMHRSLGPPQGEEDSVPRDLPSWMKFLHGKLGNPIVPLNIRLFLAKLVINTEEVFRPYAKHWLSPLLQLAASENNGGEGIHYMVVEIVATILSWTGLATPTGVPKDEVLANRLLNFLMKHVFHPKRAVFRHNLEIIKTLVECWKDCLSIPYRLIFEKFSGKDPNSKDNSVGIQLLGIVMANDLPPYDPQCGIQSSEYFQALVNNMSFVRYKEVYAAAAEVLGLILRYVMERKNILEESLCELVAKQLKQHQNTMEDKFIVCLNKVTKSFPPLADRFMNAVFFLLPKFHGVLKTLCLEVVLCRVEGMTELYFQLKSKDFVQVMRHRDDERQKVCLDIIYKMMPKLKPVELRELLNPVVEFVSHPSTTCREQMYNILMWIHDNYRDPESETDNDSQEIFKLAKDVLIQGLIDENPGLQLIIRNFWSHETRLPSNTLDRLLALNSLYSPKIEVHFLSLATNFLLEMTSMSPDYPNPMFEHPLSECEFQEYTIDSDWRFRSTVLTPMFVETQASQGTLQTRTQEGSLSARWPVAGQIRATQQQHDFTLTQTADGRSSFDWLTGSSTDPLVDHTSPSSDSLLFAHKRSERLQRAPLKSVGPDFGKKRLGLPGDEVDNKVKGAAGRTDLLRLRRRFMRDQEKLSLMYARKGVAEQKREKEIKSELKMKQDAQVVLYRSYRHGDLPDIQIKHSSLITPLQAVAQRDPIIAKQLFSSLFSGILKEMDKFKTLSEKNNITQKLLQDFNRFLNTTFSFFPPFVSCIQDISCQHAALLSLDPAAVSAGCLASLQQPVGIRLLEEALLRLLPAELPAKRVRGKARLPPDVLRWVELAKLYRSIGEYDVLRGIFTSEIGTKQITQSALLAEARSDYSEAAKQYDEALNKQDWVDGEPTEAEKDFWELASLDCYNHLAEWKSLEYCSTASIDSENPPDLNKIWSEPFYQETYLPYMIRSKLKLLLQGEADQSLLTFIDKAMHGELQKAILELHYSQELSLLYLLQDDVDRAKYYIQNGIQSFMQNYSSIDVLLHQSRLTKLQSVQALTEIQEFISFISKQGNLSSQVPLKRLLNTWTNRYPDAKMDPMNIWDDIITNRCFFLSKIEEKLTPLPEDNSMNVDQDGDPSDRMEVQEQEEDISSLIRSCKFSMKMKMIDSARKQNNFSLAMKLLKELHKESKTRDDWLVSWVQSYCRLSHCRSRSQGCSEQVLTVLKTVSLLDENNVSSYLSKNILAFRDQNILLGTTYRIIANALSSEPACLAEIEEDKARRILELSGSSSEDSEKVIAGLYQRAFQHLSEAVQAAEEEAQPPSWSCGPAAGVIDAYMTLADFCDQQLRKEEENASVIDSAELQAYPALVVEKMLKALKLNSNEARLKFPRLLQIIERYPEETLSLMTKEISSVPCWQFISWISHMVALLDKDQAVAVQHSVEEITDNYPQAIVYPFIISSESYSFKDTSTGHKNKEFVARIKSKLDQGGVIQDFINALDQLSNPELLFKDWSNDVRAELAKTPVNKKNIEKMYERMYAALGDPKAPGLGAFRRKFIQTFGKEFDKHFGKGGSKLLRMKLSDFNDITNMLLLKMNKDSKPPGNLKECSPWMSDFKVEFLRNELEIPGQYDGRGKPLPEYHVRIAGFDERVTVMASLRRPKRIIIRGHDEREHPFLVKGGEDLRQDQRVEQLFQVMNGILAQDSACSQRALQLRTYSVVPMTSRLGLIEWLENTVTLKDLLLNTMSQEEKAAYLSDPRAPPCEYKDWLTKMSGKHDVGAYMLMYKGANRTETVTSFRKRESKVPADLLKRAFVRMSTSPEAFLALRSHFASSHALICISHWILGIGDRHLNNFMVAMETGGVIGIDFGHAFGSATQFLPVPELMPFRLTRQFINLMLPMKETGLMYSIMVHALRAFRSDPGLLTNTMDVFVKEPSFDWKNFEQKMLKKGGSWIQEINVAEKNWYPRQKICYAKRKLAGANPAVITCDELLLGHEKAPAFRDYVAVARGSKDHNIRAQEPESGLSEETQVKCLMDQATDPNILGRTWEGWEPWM

SMILES	IC50 [µM]
O=c1cc(N2CCOCC2)oc2c(-c3cccc(-c4ccc(O)cc4)c3)cccc12	0.14
Cn1cncc1-c1cccc(-c2cccc3c(=O)cc(N4CCOCC4)oc23)c1	1.23
O=c1cc(N2CCOCC2)oc2c(-c3cccc4c3sc3ccccc34)cccc12	0.012
O=c1cc(N2CCOCC2)oc2c(-c3cccc(-c4nccs4)c3)cccc12	0.49
COC(=O)c1cc(N)cc(-c2cccc(-c3cccc4c(=O)cc(N5CCOCC5)oc34)c2)c1	0.26
O=Cc1ccc(-c2cccc(-c3cccc4c(=O)cc(N5CCOCC5)oc34)c2)cc1	1.1
O=c1cc(N2CCOCC2)oc2c(-c3cccc(-c4ccccc4)c3)cccc12	0.18
O=c1cc(N2CCOCC2)oc2c(-c3cccc(-c4ccc(CO)cc4)c3)cccc12	1
Cc1cc(-c2cccc(-c3cccc4c(=O)cc(N5CCOCC5)oc34)c2)cs1	1.13
N#Cc1ccc(-c2cccc(-c3cccc4c(=O)cc(N5CCOCC5)oc34)c2)cc1	1.48
Cc1cscc1-c1cccc(-c2cccc3c(=O)cc(N4CCOCC4)oc23)c1	0.64
COc1ccc(-c2cccc(-c3cccc4c(=O)cc(N5CCOCC5)oc34)c2)cc1	0.83
Cn1ccnc1-c1cccc(-c2cccc3c(=O)cc(N4CCOCC4)oc23)c1	3.01
Cc1ccsc1-c1cccc(-c2cccc3c(=O)cc(N4CCOCC4)oc23)c1	0.36
O=c1cc(N2CCOCC2)oc2c(-c3cc(-c4ccccc4)cs3)cccc12	0.09
O=c1cc(N2CCOCC2)oc2c(-c3cccc(-c4ccsc4)c3)cccc12	0.02
O=c1cc(N2CCOCC2)oc2c(-c3ccccc3)cccc12 [LY-294002]	1.6
NCc1ccc(-c2cccc(-c3cccc4c(=O)cc(N5CCOCC5)oc34)c2)cc1	1.9
O=c1cc(N2CCOCC2)oc2c(-c3cccc(-c4cc[nH]c4)c3)cccc12	1.82
O=c1cc(N2CCOCC2)oc2c(-c3cccc(-c4ccoc4)c3)cccc12	0.27
O=c1cc(N2CCOCC2)oc2c(-c3cccc(-c4ncccn4)c3)cccc12	3.05
O=c1cc(N2CCOCC2)oc2c(-c3cccc(-c4ccccn4)c3)cccc12	0.88
O=c1cc(N2CCOCC2)oc2c(-c3ccc(-c4ccccc4)s3)cccc12	0.4
O=c1cc(N2CCOCC2)oc2c(-c3cccc(-c4cccs4)c3)cccc12	0.018
O=c1cc(N2CCOCC2)oc2c(-c3cccc(-c4cncnc4)c3)cccc12	1.57
Cc1ccc(-c2cccc(-c3cccc4c(=O)cc(N5CCOCC5)oc34)c2)s1	1.07
O=c1cc(N2CCOCC2)oc2c(-c3cccc(-c4ccncc4)c3)cccc12	0.51
Nc1cc(C(=O)O)cc(-c2cccc(-c3cccc4c(=O)cc(N5CCOCC5)oc34)c2)c1	0.51
O=c1cc(N2CCOCC2)oc2c(-c3ncc(-c4ccccc4)s3)cccc12	0.37
O=c1cc(N2CCOCC2)oc2c(-c3cccc(-c4ccco4)c3)cccc12	0.38
